According to US11213516B2, “Intravaginally applicable devices comprising antiviral compounds” (AICURIS ANTI-INFECTIVE CURES GMBH, priority 2017, dated 2022):
Where “and” joins values, the source holds several entries; their conditions need not be identical. Equal entries are not always repeated. Where two headings read alike, the source gives them in different places. Marks after values point to notes of the source that are not given here.

Assay: Plasma concentration after intravaginal administration of vaginal ring
Format: in vivo, Cynomolgus monkeys
Protocol: The study was performed in four single dose phases with 28-day sampling period after Phases 1 and 2 (7-day washout period between doses). Vaginal rings were investigated for Pritelivir free base and Pritelivir mesylate salt at two dose levels per formulation. The test items were applied as vaginal ring in Phases 1 and 2 to female monkeys. The study design is below in the Table 3.
Venous blood samples were taken from all animals at the following times in relation to dosing.
• Blood sample site Femoral site • Blood volume 1.0 mL • Anticoagulant For phase 1 samples, Day 1-3 only, blood was sampled into standard HLS vials containing lithium heparin and 20 μL aqueous phosphoric acid (3.5 molar). Thereafter, blood was collected into tubes containing lithium heparin only. Plasma was obtained from all samples by centrifugation. Samples were appropriately labeled and stored deep frozen (−20° C. or below) until analysis • Total no. of blood samples 350 Vaginal Fluid Sampling
After suitable dilution, plasma and vaginal samples were analyzed on UPLC system Waters Acquity UPLC-HSS PFP column with 1.8 μm particles (100×2.1 mm) by gradient elution using 0.1% formic acid and methanol containing 0.1% formic acid. For detection, a time-of-flight mass spectrometer (Xevo GS-2 QTOF, Waters) was used operating in positive ionization mode (MSe analysis). The samples were analyzed for their content of Pritelivir free base.
The study was designed to obtain information on the time-course of unchanged test compound concentrations in plasma and vaginal fluid/tissue, following single intravaginal administration of rings to female Cynomolgus monkeys. Objectives of this study were to determine the safety and tolerance of Pritelivir loaded rings, as well as systemic and local exposure (plasma, vaginal fluid and vaginal and vulval tissue, respectively). Local exposures were compared with in vitro efficacy data of Pritelivir to get an idea on initial pharmacokinetic/pharmacodynamic (PK/PD) parameters for vaginal rings, i.e. to assess the potential ability of a Pritelivir loaded ring to suppress viral replication in the target tissue. Table 9 gives an overview on the EC50 values of Pritelivir on HSV-1 and HSV-2 Data source: Field, H. J., et al., Baseline sensitivity of HSV-1 and HSV-2 clinical isolates and defined acyclovir-resistant strains to the helicase-primase inhibitor pritelivir. Antiviral Res, 2013. 100(2): p. 297-9. EC50=50% effective concentration.

[1] = female, cynomolgus monkey, plasma, other: intravaginal (vaginal ring), 40 mg, ring 40 mg free base, Phase 1 Group 1, group mean, read-out: Plasma concentration of Pritelivir free base, Mean
[2] = female, cynomolgus monkey, plasma, other: intravaginal (vaginal ring), 40 mg, ring 40 mg free base, Phase 1 Group 1, individual animals, read-out: Plasma concentration of Pritelivir free base
[3] = female, cynomolgus monkey, plasma, other: intravaginal (vaginal ring), 240 mg, ring 240 mg free base, Phase 2 Group 1, group mean, read-out: Plasma concentration of Pritelivir free base, Mean
[4] = female, cynomolgus monkey, plasma, other: intravaginal (vaginal ring), 240 mg, ring 240 mg free base, Phase 2 Group 1, individual animals, read-out: Plasma concentration of Pritelivir free base

For `Cc1nc(N(C)C(=O)Cc2ccc(-c3ccccn3)cc2)sc1S(N)(=O)=O` [Pritelivir free base], the “All plasma concentrations of Pritelivir” value (Phases 1 and 2, up to 28 Days, all rings) was < 132 nM and < 54 μg/L, the concentration at 0.0417 d (female, cynomolgus monkey, plasma, other: intravaginal (vaginal ring), 40 mg, ring 40 mg free base, Phase 1 Group 1, 0.0417 d, group mean, read-out: Plasma concentration of Pritelivir free base, Mean) was 3.43 ng/mL and the concentration at 0.0417 d (female, cynomolgus monkey, plasma, other: intravaginal (vaginal ring), 40 mg, ring 40 mg free base, Phase 1 Group 1, 0.0417 d, individual animals, read-out: Plasma concentration of Pritelivir free base) was 2.44 ng/mL. It also gave a concentration at 0.167 d [1] of 5.61 ng/mL, a concentration at 0.167 d [2] of 2.38 ng/mL and a concentration at 0.333 d [1] of 6.4 ng/mL. The concentration at 0.333 d [2] was 2.22 ng/mL, the concentration at 4 d [1] was 3.86 ng/mL and the concentration at 4 d [2] was 3.21 ng/mL. The concentration at 7 d [1] was 3.66 ng/mL, the concentration at 7 d [2] was 3.55 ng/mL and the concentration at 10 d [1] was 3.36 ng/mL. For the same molecule, the concentration at 10 d [2] was 3.92 ng/mL, the concentration at 14 d [1] was 3.31 ng/mL and the concentration at 14 d [2] was 2.81 ng/mL. For the same molecule, the concentration at 17 d [1] was 3.2 ng/mL, the concentration at 17 d [2] was 2.64 ng/mL and the concentration at 21 d [1] was 2.91 ng/mL. For the same molecule, the concentration at 21 d [2] was 3 ng/mL, the concentration at 24 d [1] was 2.99 ng/mL and the concentration at 24 d [2] was 3.21 ng/mL. The concentration at 28 d [1] was 2.79 ng/mL, the concentration at 28 d [2] was 2.6 ng/mL and the concentration at 0.0833 d (female, cynomolgus monkey, plasma, other: intravaginal (vaginal ring), 240 mg, ring 240 mg free base, Phase 2 Group 1, 0.0833 d, group mean, read-out: Plasma concentration of Pritelivir free base, Mean) was 3.68 ng/mL. For the same molecule, the concentration at 0.0833 d (female, cynomolgus monkey, plasma, other: intravaginal (vaginal ring), 240 mg, ring 240 mg free base, Phase 2 Group 1, 0.0833 d, individual animals, read-out: Plasma concentration of Pritelivir free base) was 4.41 ng/mL, the concentration at 0.167 d [3] was 4.58 ng/mL and the concentration at 0.333 d [3] was 5.87 ng/mL. It also gave a concentration at 3 d (female, cynomolgus monkey, plasma, other: intravaginal (vaginal ring), 240 mg, ring 240 mg free base, Phase 2 Group 1, 3 d, individual animals, read-out: Plasma concentration of Pritelivir free base) of 26.8 ng/mL, a concentration at 4 d [4] of 26 ng/mL and a concentration at 7 d [4] of 16.4 ng/mL. The concentration at 10 d [4] was 9.46 ng/mL, the concentration at 14 d [4] was 9.48 ng/mL and the concentration at 17 d [4] was 10.8 ng/mL. The concentration at 21 d [4] was 7.78 ng/mL, the concentration at 24 d [4] was 9.71 ng/mL and the concentration at 28 d [4] was 12.7 ng/mL. For the same molecule, the “Plasma concentration of Pritelivir free base” value (ring 40 mg free base, Phase 1 Group 1, 0 d (pre-dose), individual animals) was 2.70 ^a μg/L, the “Plasma concentration of Pritelivir free base” value (ring 40 mg free base, Phase 1 Group 1, 0.0417 d, individual animals) was 4.73 ^ μg/L and 3.11 ^a μg/L and the “Plasma concentration of Pritelivir free base, Mean” value (ring 40 mg free base, Phase 1 Group 1, 0.0833 d, group mean) was 5.28 ^ μg/L.
